This note sets out measurements from patent publication US10065971B2 (priority 2014, dated 2018).

Molecules are shown by their SMILES. Counter-ions that a name gives are not always drawn.

human σ1 receptor, sequence (Q99720 whole entry): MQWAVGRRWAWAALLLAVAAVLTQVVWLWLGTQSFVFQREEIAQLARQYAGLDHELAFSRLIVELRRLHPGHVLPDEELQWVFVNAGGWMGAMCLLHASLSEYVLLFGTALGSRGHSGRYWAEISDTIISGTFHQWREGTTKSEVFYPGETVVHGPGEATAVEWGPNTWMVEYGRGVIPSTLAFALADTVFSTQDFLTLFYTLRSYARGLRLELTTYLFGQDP

The first experiment has as its target human σ1 receptor (Homo sapiens, UniProt Q99720). The experiment is described as follows: biochemical. The settings on record: combined class from Ki at human σ1 receptor (A1) and Ki at human μ-opioid receptor (A2); radioligand binding. Further details: μ and σ1 dual binding: scale not given here. On the procedure:
Biological Activity Pharmacological Study Human σ1 Receptor Radioligand Assay
The assay was carried out with 7 μg of membrane suspension, 5 nM of [^3H](+)-pentazocine in either absence or presence of either buffer or 10 μM Haloperidol for total and non-specific binding, respectively. Binding buffer contained Tris-HCl 50 mM at pH 8. Plates were incubated at 37° C. for 120 minutes. After the incubation period, the reaction mix was then transferred to MultiScreen HTS, FC plates (Millipore), filtered and plates were washed 3 times with ice-cold 10 mM Tris-HCL (pH7.4). Filters were dried and counted at approximately 40% efficiency in a MicroBeta scintillation counter (Perkin-Elmer) using EcoScint liquid scintillation cocktail
Take `Cl.O=C(c1ccccc1)N1CCOC2(CCN(CCc3ccccn3)CC2)C1` [Example 63, phenyl(9-(2-(pyridin-2-yl)ethyl)-1-oxa-4,9-diazaspiro[5.5]undecan-4-yl)methanone hydrochloride]: the “μ and σ1 dual binding” value is on record as “++”. On the same count and under the same terms, next, `CC1CN(C(=O)c2cncc(C(F)(F)F)c2)CC2(CCN(CCc3ccccc3)CC2)O1.Cl` (stereo not drawn) [Example 36, (2-methyl-9-phenethyl-1-oxa-4,9-diazaspiro[5.5]undecan-4-yl)(5-(trifluoromethyl)pyridin-3-yl)methanone hydrochloride]: “++”. Same read-out and setting: next, `CC1CN(C(=O)c2ccccn2)CC2(CCN(CCc3ncccc3Cl)CC2)O1.Cl` (stereo not drawn) [Example 48, (9-(2-(3-chloropyridin-2-yl)ethyl)-2-methyl-1-oxa-4,9-diazaspiro[5.5]undecan-4-yl)(pyridin-2-yl)methanone hydrochloride]: “++”. Still for that read-out and setting: next, `CC1CN(C(=O)c2ccccc2)CC2(CCN(CCc3ccc(C(F)(F)F)cn3)CC2)O1.Cl` (stereo not drawn) [Example 42, (2-methyl-9-(2-(5-(trifluoromethyl)pyridin-2-yl)ethyl)-1-oxa-4,9-diazaspiro[5.5]undecan-4-yl)(phenyl)methanone hydrochloride]: “++”; `Cl.O=C(c1cncs1)N1CCOC2(CCN(CCc3ccccc3)CC2)C1` [Example 14, (9-phenethyl-1-oxa-4,9-diazaspiro[5.5]undecan-4-yl)(thiazol-5-yl)methanone hydrochloride]: “++”; `O=C(c1cscn1)N1CCOC2(CCN(CCc3ccccc3)CC2)C1` [Example 12, (9-phenethyl-1-oxa-4,9-diazaspiro[5.5]undecan-4-yl)(thiazol-4-yl)methanone]: “++”. Take `N#Cc1ccccc1C(=O)N1CC2(CCN(CCc3ncccc3F)CC2)OC2(CC2)C1` [Example 135, 2-(8-(2-(3-fluoropyridin-2-yl)ethyl)-4-oxa-8,12-diazadispiro[2.1.5.3]tridecane-12-carbonyl)benzonitrile]: the “μ and σ1 dual binding” value is “++”.

`CC1CN(C(=O)c2ccccc2)CC2(CCN(CCc3cccc(NC(N)=O)c3)CC2)O1.Cl` (stereo not drawn) [Example 109, 1-(3-(2-(4-benzoyl-2-methyl-1-oxa-4,9-diazaspiro[5.5]undecan-9-yl)ethyl)phenyl)urea hydrochloride]: the “μ and σ1 dual binding” value is recorded as “++”. Take `Cl.O=C(Cc1cccnc1)N1CCOC2(CCN(CCc3ccccc3)CC2)C1` [Example 15, 1-(9-phenethyl-1-oxa-4,9-diazaspiro[5.5]undecan-4-yl)-2-(pyridin-3-yl)ethanone hydrochloride]: the “μ and σ1 dual binding” value was “++”.

Regarding `Cl.O=C(CC1CC1)N1CCOC2(CCN(CCc3ccccc3)CC2)C1` [Example 20, 2-cyclopropyl-1-(9-phenethyl-1-oxa-4,9-diazaspiro[5.5]undecan-4-yl)ethanone hydrochloride], the “μ and σ1 dual binding” value was “++”. Still for that read-out and setting: next, `CC1CN(C(=O)c2ccccc2)CC2(CCN(CCc3ncccc3C(F)(F)F)CC2)O1.Cl` (stereo not drawn) [Example 41, (2-methyl-9-(2-(3-(trifluoromethyl)pyridin-2-yl)ethyl)-1-oxa-4,9-diazaspiro[5.5]undecan-4-yl)(phenyl)methanone hydrochloride]: “++”.

For the molecule `Cl.O=C(c1nccs1)N1CCOC2(CCN(CCc3ccccc3)CC2)C1` [Example 13, (9-phenethyl-1-oxa-4,9-diazaspiro[5.5]undecan-4-yl)(thiazol-2-yl)methanone hydrochloride], the “μ and σ1 dual binding” value is given as “++”. Still for that read-out and setting: next, `CC1CN(C(=O)c2ccccc2)CC2(CCN(CCc3ccccn3)CC2)O1.Cl` (stereo not drawn) [Example 87, (2-methyl-9-(2-(pyridin-2-yl)ethyl)-1-oxa-4,9-diazaspiro[5.5]undecan-4-yl)(phenyl)methanone hydrochloride]: “++”; `C[C@@H]1CN(C(=O)c2ccccc2F)CC2(CCN(CCc3ncccc3F)CC2)O1` [Example 143, (R)-(2-fluorophenyl)(9-(2-(3-fluoropyridin-2-yl)ethyl)-2-methyl-1-oxa-4,9-diazaspiro[5.5]undecan-4-yl)methanone]: “++”; `Cl.O=C(c1cncc(F)c1)N1CCOC2(CCN(CCc3ccccc3)CC2)C1` [Example 26, (5-fluoropyridin-3-yl)(9-phenethyl-1-oxa-4,9-diazaspiro[5.5]undecan-4-yl)methanone hydrochloride]: “++”. As to `CC1CN(C(=O)c2ccc(Cl)cn2)CC2(CCN(CCc3csc(N)n3)CC2)O1.Cl` (stereo not drawn) [Example 102, (9-(2-(2-aminothiazol-4-yl)ethyl)-2-methyl-1-oxa-4,9-diazaspiro[5.5]undecan-4-yl)(5-chloropyridin-2-yl)methanone hydrochloride], the “μ and σ1 dual binding” value was “++”. Same read-out and setting: the result for `CC1CN(C(=O)c2ccccc2)CC2(CCN(CCc3csc(N)n3)CC2)O1.Cl` (stereo not drawn) [Example 103, (9-(2-(2-aminothiazol-4-yl)ethyl)-2-methyl-1-oxa-4,9-diazaspiro[5.5]undecan-4-yl)(phenyl)methanone] reads “++”; that for `Cl.O=C(c1ncccc1F)N1CCOC2(CCN(CCc3ccccc3)CC2)C1` [Example 25, (3-fluoropyridin-2-yl)(9-phenethyl-1-oxa-4,9-diazaspiro[5.5]undecan-4-yl)methanone hydrochloride], “++”; that for `COc1cccnc1CCN1CCC2(CC1)CN(C(=O)c1ccccc1F)CC1(CC1)O2` [Example 130, 12-[(2-fluorophenyl)carbonyl]-8-(2-(3-methoxypyridin-2-yl)ethyl)-4-oxa-8,12-diazadispiro[2.1.5.3]tridecane], “++”.

In the case of `C[C@@H]1CN(C(=O)c2ccccn2)CC2(CCN(CCc3ccccc3)CC2)O1.Cl` [Example 124, (R)-(2-methyl-9-phenethyl-1-oxa-4,9-diazaspiro[5.5]undecan-4-yl)(pyridin-2-yl)methanone hydrochloride], the “μ and σ1 dual binding” value is listed as “++”. Consider `CN(C)C(=O)N1CCOC2(CCN(CCc3ccccc3)CC2)C1` [Example 117, N,N-dimethyl-9-phenethyl-1-oxa-4,9-diazaspiro[5.5]undecane-4-carboxamide], for which the “μ and σ1 dual binding” value was “++”. With `CC(=O)Nc1ccccc1CCN1CCC2(CC1)CN(C(=O)c1ccccc1)CC(C)O2.Cl` (stereo not drawn) [Example 112, N-(2-(2-(4-benzoyl-2-methyl-1-oxa-4,9-diazaspiro[5.5]undecan-9-yl)ethyl)phenyl)acetamide hydrochloride], the “μ and σ1 dual binding” value is given as “++”. The same measure, in the same setting: next, `CC(=O)Nc1cccc(CCN2CCC3(CC2)CN(C(=O)c2ccccc2)CCO3)c1` [Example 111, N-(3-(2-(4-benzoyl-1-oxa-4,9-diazaspiro[5.5]undecan-9-yl)ethyl)phenyl)acetamide]: “++”; `CS(=O)(=O)Nc1cccc(CCN2CCC3(CC2)CN(C(=O)c2ccccc2)CCO3)c1` [Example 114, N-(3-(2-(4-benzoyl-1-oxa-4,9-diazaspiro[5.5]undecan-9-yl)ethyl)phenyl)methanesulfonamide]: “++”.

Staying with this experiment, now noted: combined class from Ki at human σ1 receptor (A1) and Ki at human μ-opioid receptor (A2); radioligand binding; read-out: μ and σ1 dual binding.
`CC(C)OCCN1CCC2(CC1)CN(C(=O)c1ccccc1)CC(C)O2` (stereo not drawn) [Example 88, (9-(2-isopropoxyethyl)-2-methyl-1-oxa-4,9-diazaspiro[5.5]undecan-4-yl)(phenyl)methanone hydrochloride]: the Ki is over 500 nM. Consider `CC1CN(C(=O)c2ccc(F)cc2F)CC2(CCN(CCc3ncccc3F)CC2)O1` (stereo not drawn) [Example 148, (2,4-difluorophenyl)(9-(2-(3-fluoropyridin-2-yl)ethyl)-2-methyl-1-oxa-4,9-diazaspiro[5.5]undecan-4-yl)methanone], for which the Ki was over 500 nM. Same read-out and setting: the result for `Nc1cccc(CCN2CCC3(CC2)CN(C(=O)c2ccccc2)CCO3)c1` [Example 104, (9-(3-aminophenethyl)-1-oxa-4,9-diazaspiro[5.5]undecan-4-yl)(phenyl)methanone] reads over 500 nM. Same read-out and setting: the result for `O=C(c1ccccc1)N1CCOC2(CCN(CCc3cccc([N+](=O)[O-])c3)CC2)C1` [Example 97, (9-(3-nitrophenethyl)-1-oxa-4,9-diazaspiro[5.5]undecan-4-yl)(phenyl)methanone] reads over 500 nM; that for `CC1CN(C(=O)c2ccccc2)CC2(CCN(CCc3csc(NC(=O)OC(C)(C)C)n3)CC2)O1` (stereo not drawn) [Example 79, tert-butyl (4-(2-(4-benzoyl-2-methyl-1-oxa-4,9-diazaspiro[5.5]undecan-9-yl)ethyl)thiazol-2-yl)carbamate], over 500 nM.

For `CC1CN(C(=O)c2ccc(Cl)cn2)CC2(CCN(CCc3csc(NC(=O)OC(C)(C)C)n3)CC2)O1` (stereo not drawn) [Example 78, tert-butyl (4-(2-(4-(5-chloropicolinoyl)-2-methyl-1-oxa-4,9-diazaspiro[5.5]undecan-9-yl)ethyl)thiazol-2-yl)carbamate], the Ki was over 500 nM.

For the molecule `CC1CN(C(=O)c2cccc(F)c2)CC2(CCN(CCc3ncccc3F)CC2)O1` (stereo not drawn) [Example 151, (3-fluorophenyl)(9-(2-(3-fluoropyridin-2-yl)ethyl)-2-methyl-1-oxa-4,9-diazaspiro[5.5]undecan-4-yl)methanone], the Ki is over 500 nM. As for `CC1CN(C(=O)c2ccccc2F)CC2(CCN(CCc3ncccc3F)CC2)O1` (stereo not drawn) [Example 59, (2-fluorophenyl)(9-(2-(3-fluoropyridin-2-yl)ethyl)-2-methyl-1-oxa-4,9-diazaspiro[5.5]undecan-4-yl)methanone dihydrochloride], the Ki is over 500 nM. On the same count and under the same terms, the result for `O=C(Nc1cccnc1)N1CCOC2(CCN(CCc3ccccc3)CC2)C1` [Example 121, 9-phenethyl-N-(pyridin-3-yl)-1-oxa-4,9-diazaspiro[5.5]undecane-4-carboxamide] reads over 500 nM.
